# Data reported in patent US6355799B1, “Substituted benzene compounds, process for their preparation, and herbicidal and defoliant compositions containing them” (ISK Americas Incorporated, priority 1997, dated 2002).
# Columns and labels:
# Type in all cases: in vivo
# [1] = test system: redroot pigweed (Amaranthus retroflexus, AMARE); assay: Pre-emerge test, greenhouse herbicide activity screening; conditions: pre-emerge; for phytotoxicity rating AMARE: 14 days after application, rating scale 0-100; for Pre-emerge Herbicidal Activity AMARE: phytotoxicity rating 0-100 at 14 days after application; for Pre-emerge Herbicidal Activity AMARE (phytotoxicity rating, scale 0-100): rated 14 days after application, 0 = no damage, 100 = complete death
# Procedure, shortened: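 Plants grown in 10 cm pots of sandy loam mix received acetone-dissolved compounds through a moving flat-fan nozzle. Doses ranged from 15 to 1000 g ai/ha. Pre-emerge pots were seeded one day earlier, post-emerge pots 8–21 days earlier. Fourteen days on, each pot was graded 0–100 for damage.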
# [2] = test system: barnyardgrass (Echinochloa crus-galli, ECHCG); assay: as above; conditions: pre-emerge; for phytotoxicity rating ECHCG: 14 days after application, rating scale 0-100; for Pre-emerge Herbicidal Activity ECHCG: phytotoxicity rating 0-100 at 14 days after application; for Pre-emerge Herbicidal Activity ECHCG (phytotoxicity rating, scale 0-100): rated 14 days after application, 0 = no damage, 100 = complete death
# Procedure, shortened: (§1)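 Compounds in acetone were track-sprayed at 15–1000 g ai/ha: pre-emergence onto soil sown the previous day, then top-watered to incorporate and later bottom-watered; post-emergence onto 2–3 leaf plants with 0.25% v/v surfactant, bottom-watered only. Ratings on a 0–100 phytotoxicity scale were taken at day 14.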
# [3] = test system: green foxtail (Setaria viridis, SETVI); assay: as above; conditions: pre-emerge; for phytotoxicity rating SETVI: 14 days after application, rating scale 0-100; for Pre-emerge Herbicidal Activity SETVI: phytotoxicity rating 0-100 at 14 days after application; for Pre-emerge Herbicidal Activity SETVI (phytotoxicity rating, scale 0-100): rated 14 days after application, 0 = no damage, 100 = complete death
# Procedure, shortened: as §1
# [4] = test system: ivyleaf morningglory (Ipomoea hederacea, IPOHE); assay: as above; conditions: pre-emerge; for phytotoxicity rating IPOHE: 14 days after application, rating scale 0-100; for Pre-emerge Herbicidal Activity IPOHE: phytotoxicity rating 0-100 at 14 days after application; for Pre-emerge Herbicidal Activity IPOHE (phytotoxicity rating, scale 0-100): rated 14 days after application, 0 = no damage, 100 = complete death
# Procedure, shortened: as §1
# [5] = test system: johnsongrass (Sorghum halepense, SORHA); assay: as above; conditions: pre-emerge; for phytotoxicity rating SORHA: 14 days after application, rating scale 0-100; for Pre-emerge Herbicidal Activity SORHA: phytotoxicity rating 0-100 at 14 days after application; for Pre-emerge Herbicidal Activity SORHA (phytotoxicity rating, scale 0-100): rated 14 days after application, 0 = no damage, 100 = complete death
# Procedure, shortened: as §1
# [6] = test system: lambsquarters (Chenopodium album, CHEAL); assay: as above; conditions: pre-emerge; for phytotoxicity rating CHEAL: 14 days after application, rating scale 0-100; for Pre-emerge Herbicidal Activity CHEAL: phytotoxicity rating 0-100 at 14 days after application; for Pre-emerge Herbicidal Activity CHEAL (phytotoxicity rating, scale 0-100): rated 14 days after application, 0 = no damage, 100 = complete death
# Procedure, shortened: as §1
# [7] = test system: large crabgrass (Digitaria sanguinalis, DIGSA); assay: as above; conditions: pre-emerge; for phytotoxicity rating DIGSA: 14 days after application, rating scale 0-100; for Pre-emerge Herbicidal Activity DIGSA: phytotoxicity rating 0-100 at 14 days after application; for Pre-emerge Herbicidal Activity DIGSA (phytotoxicity rating, scale 0-100): rated 14 days after application, 0 = no damage, 100 = complete death
# Procedure, shortened: as §1
# [8] = test system: sicklepod (Cassia obtusifolia, CASOB); assay: as above; conditions: pre-emerge; for phytotoxicity rating CASOB: 14 days after application, rating scale 0-100; for Pre-emerge Herbicidal Activity CASOB: phytotoxicity rating 0-100 at 14 days after application; for Pre-emerge Herbicidal Activity CASOB (phytotoxicity rating, scale 0-100): rated 14 days after application, 0 = no damage, 100 = complete death
# Procedure, shortened: as §1
# [9] = test system: velvetleaf (Abutilon theophrasti, ABUTH); assay: as above; conditions: pre-emerge; for phytotoxicity rating ABUTH: 14 days after application, rating scale 0-100; for Pre-emerge Herbicidal Activity ABUTH: phytotoxicity rating 0-100 at 14 days after application; for Pre-emerge Herbicidal Activity ABUTH (phytotoxicity rating, scale 0-100): rated 14 days after application, 0 = no damage, 100 = complete death
# Procedure, shortened: as §1
# [10] = test system: field corn (Zea mays L., var. Dekalb 535, CORN); assay: Pre-emerge test, crop safety; conditions: pre-emerge; for phytotoxicity rating CORN: 14 days after application, rating scale 0-100; for Pre-emerge Herbicidal Activity CORN: crop damage, phytotoxicity rating 0-100 at 14 days after application
# Procedure, shortened: (§2)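 Sandy loam pots; pre-emerge: sown 1 d pre-spray, surface-watered after, then bottom-watered. Post-emerge: sown 8–21 d before, 2–3 leaf stage, + 0.25% v/v NIS, bottom-watered. Acetone, 187 l/ha track spray, 15–1000 g ai/ha. 0–100 injury score, day 14.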
# [11] = test system: upland rice (Oryza sp., var. Tebonnet, RICE); assay: Pre-emerge test, crop safety; conditions: pre-emerge; for phytotoxicity rating RICE: 14 days after application, rating scale 0-100; for Pre-emerge Herbicidal Activity RICE: crop damage, phytotoxicity rating 0-100 at 14 days after application
# Procedure, shortened: as §2
smiles,measurement,setting,value
Cn1c(C(F)(F)F)cc(=O)n(-c2ccc(Cl)cc2C(=O)c2ccccc2)c1=O [14-57],phytotoxicity rating AMARE,[1]; 63 g ai/ha,0
same,phytotoxicity rating AMARE,[1]; 250 g ai/ha,0
same,phytotoxicity rating ECHCG,[2]; 63 g ai/ha,0
same,phytotoxicity rating ECHCG,[2]; 250 g ai/ha,0
same,phytotoxicity rating SETVI,[3]; 63 g ai/ha,0
same,phytotoxicity rating SETVI,[3]; 250 g ai/ha,0
same,phytotoxicity rating IPOHE,[4]; 63 g ai/ha,0
same,phytotoxicity rating IPOHE,[4]; 250 g ai/ha,0
same,phytotoxicity rating SORHA,[5]; 63 g ai/ha,0
same,phytotoxicity rating SORHA,[5]; 250 g ai/ha,0
same,phytotoxicity rating CHEAL,[6]; 63 g ai/ha,0
same,phytotoxicity rating CHEAL,[6]; 250 g ai/ha,0
same,phytotoxicity rating DIGSA,[7]; 63 g ai/ha,0
same,phytotoxicity rating DIGSA,[7]; 250 g ai/ha,20
same,phytotoxicity rating CASOB,[8]; 63 g ai/ha,0
same,phytotoxicity rating CASOB,[8]; 250 g ai/ha,0
same,phytotoxicity rating ABUTH,[9]; 63 g ai/ha,0
same,phytotoxicity rating ABUTH,[9]; 250 g ai/ha,0
same,phytotoxicity rating CORN,[10]; 63 g ai/ha,0
same,phytotoxicity rating CORN,[10]; 250 g ai/ha,0
same,phytotoxicity rating RICE,[11]; 63 g ai/ha,0
same,phytotoxicity rating RICE,[11]; 250 g ai/ha,0
CC(C)Oc1c(Cl)cc(Cl)c(-n2nnn(CCCF)c2=O)c1N [Compound 5-16],Pre-emerge Herbicidal Activity AMARE,[1]; rate 63 g ai/ha,0
same,Pre-emerge Herbicidal Activity AMARE,[1]; rate 250 g ai/ha,0
same,Pre-emerge Herbicidal Activity ECHCG,[2]; rate 63 g ai/ha,0
same,Pre-emerge Herbicidal Activity ECHCG,[2]; rate 250 g ai/ha,0
same,Pre-emerge Herbicidal Activity SETVI,[3]; rate 63 g ai/ha,0
same,Pre-emerge Herbicidal Activity SETVI,[3]; rate 250 g ai/ha,0
same,Pre-emerge Herbicidal Activity IPOHE,[4]; rate 63 g ai/ha,0
same,Pre-emerge Herbicidal Activity IPOHE,[4]; rate 250 g ai/ha,0
same,Pre-emerge Herbicidal Activity SORHA,[5]; rate 63 g ai/ha,0
same,Pre-emerge Herbicidal Activity SORHA,[5]; rate 250 g ai/ha,0
same,Pre-emerge Herbicidal Activity CHEAL,[6]; rate 63 g ai/ha,0
same,Pre-emerge Herbicidal Activity CHEAL,[6]; rate 250 g ai/ha,20
same,Pre-emerge Herbicidal Activity DIGSA,[7]; rate 63 g ai/ha,0
same,Pre-emerge Herbicidal Activity DIGSA,[7]; rate 250 g ai/ha,0
same,Pre-emerge Herbicidal Activity CASOB,[8]; rate 63 g ai/ha,0
same,Pre-emerge Herbicidal Activity CASOB,[8]; rate 250 g ai/ha,0
same,Pre-emerge Herbicidal Activity ABUTH,[9]; rate 63 g ai/ha,0
same,Pre-emerge Herbicidal Activity ABUTH,[9]; rate 250 g ai/ha,0
same,Pre-emerge Herbicidal Activity CORN,[10]; rate 63 g ai/ha,0
same,Pre-emerge Herbicidal Activity CORN,[10]; rate 250 g ai/ha,0
same,Pre-emerge Herbicidal Activity RICE,[11]; rate 63 g ai/ha,0
same,Pre-emerge Herbicidal Activity RICE,[11]; rate 250 g ai/ha,0
"O=c1cc(C(F)(F)F)[nH]c(=O)n1-c1c(F)cc(Cl)c(O)c1[N+](=O)[O-] [Compound 1-2, 3-(4-chloro-6-fluoro-3-hydroxy-2-nitrophenyl)-6-trifluoromethyl-2,4(1H, 3H)-pyrimidinedione]","Pre-emerge Herbicidal Activity AMARE (phytotoxicity rating, scale 0-100)",[1]; 63 g ai/ha,0
same,"Pre-emerge Herbicidal Activity AMARE (phytotoxicity rating, scale 0-100)",[1]; 250 g ai/ha,0
same,"Pre-emerge Herbicidal Activity ECHCG (phytotoxicity rating, scale 0-100)",[2]; 63 g ai/ha,0
same,"Pre-emerge Herbicidal Activity ECHCG (phytotoxicity rating, scale 0-100)",[2]; 250 g ai/ha,0
same,"Pre-emerge Herbicidal Activity SETVI (phytotoxicity rating, scale 0-100)",[3]; 63 g ai/ha,20
same,"Pre-emerge Herbicidal Activity SETVI (phytotoxicity rating, scale 0-100)",[3]; 250 g ai/ha,0
same,"Pre-emerge Herbicidal Activity IPOHE (phytotoxicity rating, scale 0-100)",[4]; 63 g ai/ha,0
same,"Pre-emerge Herbicidal Activity IPOHE (phytotoxicity rating, scale 0-100)",[4]; 250 g ai/ha,0
same,"Pre-emerge Herbicidal Activity SORHA (phytotoxicity rating, scale 0-100)",[5]; 63 g ai/ha,0
same,"Pre-emerge Herbicidal Activity SORHA (phytotoxicity rating, scale 0-100)",[5]; 250 g ai/ha,0
same,"Pre-emerge Herbicidal Activity CHEAL (phytotoxicity rating, scale 0-100)",[6]; 63 g ai/ha,0
same,"Pre-emerge Herbicidal Activity CHEAL (phytotoxicity rating, scale 0-100)",[6]; 250 g ai/ha,0
same,"Pre-emerge Herbicidal Activity DIGSA (phytotoxicity rating, scale 0-100)",[7]; 63 g ai/ha,0
same,"Pre-emerge Herbicidal Activity DIGSA (phytotoxicity rating, scale 0-100)",[7]; 250 g ai/ha,30
same,"Pre-emerge Herbicidal Activity CASOB (phytotoxicity rating, scale 0-100)",[8]; 63 g ai/ha,90
same,"Pre-emerge Herbicidal Activity CASOB (phytotoxicity rating, scale 0-100)",[8]; 250 g ai/ha,100
same,"Pre-emerge Herbicidal Activity ABUTH (phytotoxicity rating, scale 0-100)",[9]; 63 g ai/ha,50
same,"Pre-emerge Herbicidal Activity ABUTH (phytotoxicity rating, scale 0-100)",[9]; 250 g ai/ha,10
"COc1c(Cl)cc(F)c(-n2c(=O)cc(C(F)(F)F)n(C)c2=O)c1O [Compound 16-6, 3-(4-chloro-6-fluoro-2-hydroxy-3-methoxyphenyl)-1-methyl-6-trifluoromethyl-2,4(1H, 3H)-pyrimidinedione]",phytotoxicity rating AMARE,[1]; 63 g ai/ha,70
same,phytotoxicity rating AMARE,[1]; 250 g ai/ha,100
same,phytotoxicity rating ECHCG,[2]; 63 g ai/ha,0
same,phytotoxicity rating ECHCG,[2]; 250 g ai/ha,50
same,phytotoxicity rating SETVI,[3]; 63 g ai/ha,0
same,phytotoxicity rating SETVI,[3]; 250 g ai/ha,40
same,phytotoxicity rating IPOHE,[4]; 63 g ai/ha,50
same,phytotoxicity rating IPOHE,[4]; 250 g ai/ha,90
same,phytotoxicity rating SORHA,[5]; 63 g ai/ha,0
same,phytotoxicity rating SORHA,[5]; 250 g ai/ha,50
same,phytotoxicity rating CHEAL,[6]; 63 g ai/ha,90
same,phytotoxicity rating CHEAL,[6]; 250 g ai/ha,100
same,phytotoxicity rating DIGSA,[7]; 63 g ai/ha,0
same,phytotoxicity rating DIGSA,[7]; 250 g ai/ha,70
same,phytotoxicity rating CASOB,[8]; 63 g ai/ha,50
same,phytotoxicity rating CASOB,[8]; 250 g ai/ha,70
same,phytotoxicity rating ABUTH,[9]; 63 g ai/ha,90
same,phytotoxicity rating ABUTH,[9]; 250 g ai/ha,100
